Series [1] deals with Escherichia coli ATCC 8739, Pseudomonas aeruginosa ATCC 15442, Staphylococcus aureus ATCC 6538, Propionibacterium acnes MTCC 1951, Candida albicans ATCC 10231 …. Description: Preservative challenge test according to PCPC protocol. Type of series: cell-based, bacteria, yeast and mold. The text has this: The preservative efficacy of the compounds of Formula I has been tested in surfactant formulations typically containing anionic surfactant with pH ranging for 4 to 8.0. The personal care and home care formulations (body wash, shampoo, skin-cream and dish wash) are preserved with 1.0 to 2.0% of compounds of Formula I. The details of formulations are given in Examples 4, 5, 6, 7, 8, 9, and 10. The above formulations pass the challenge test performed according to PCPC protocol using Escherichia coli ATCC 8739, Pseudomonas aeruginosa ATCC 15442 (Gram −ve bacteria), Staphylococcus aureus ATCC 6538, Propionibacterium acnes MTCC 1951, (Gram +ve) Candida albicans ATCC 10231, Malassezia furfur MTCC 1374 (yeast) and Aspergillus niger ATCC 16404 (mold) The formulations pass the challenge test criteria for both bacteria and fungi.
The above formulations (Example 4, 5, 6, 7, 8, 9 & 10) pass the challenge test performed according to PCPC protocol using Escherichia coli ATCC 8739, Pseudomonas aeruginosa ATCC 15442 (Gram −ve bacteria), Staphylococcus aureus ATCC 6538, Propionibacterium acnes MTCC 1951, (Gram +ve) Candida albicans ATCC 10231, Malassezia furfur MTCC 1374 (yeast) and Aspergillus niger ATCC 16404 (mold).

The conditions of series [2]: comparison surfactants, conditions not given; cited from earlier work.

“N-Alkyl, N,N-dimethyl, N-benzyl ammonium chloride [Benzalkonium chloride]”: the challenge test entry in series [1] (10% SLES preserved with 1% of the substance, PCPC protocol) is given as “failed to pass”. The “antimicrobial activity in the presence of anionic surfactant” value in series [1] (used at 10000 ppm) is “does not exhibit any antimicrobial activity”.
For `CCCCCCCCCCCC[N+](CCC(=O)OC)(CCC(=O)OC)Cc1ccccc1.[Cl-]` [N-Lauryl, N,N-Dimethyldipropionate Benzyl Ammonium Chloride], the “MIC (%)” value with S aureus was 0.5%; in the series on Aspergillus niger, 0.2%; against C. albicans it was 0.4%; in the series with P acne it was 0.4%; against E coli it was 0.3%; against M furfur it was 0.5%. For the same compound, in the series with Pseudomonas sp, the “MIC (%)” value was 0.5%.
As for `CCCCCCCCCCCCOS(=O)(=O)[O-].[Na+]` [sodium lauryl sulphate], the CMC in series [2] is recorded as 8.0 mmol/L.
As for cocoamidopropyl betaine, the CMC in [2] is on record as 0.05 mmol/L.

Values taken from patent US10259774B1, “Antimicrobials for preservation of home and personal care products” (GALAXY SURFACTANTS LTD., priority 2018, dated 2019).
